Data from US11230543B2, “Biaryl monobactam compounds and methods of use thereof for the treatment of bacterial infections” (priority 2015, dated 2022).
Where a name gives a salt, the structure may show the parent alone.

What was measured:
[1] = tested on: Pseudomonas aeruginosa expressing AmpC (CL5701); assay: Antibiotic activity: growth inhibitory concentration (OD600), Pseudomonas aeruginosa CL5701; assay type: cell-based; settings: lowest concentration inhibiting 95% of bacterial growth; in the presence of β lactamase inhibitor Relebactam 4 μg/mL; 35±2° C. for 22 hours; tested range 100 μM to 0.098 μM
In short: (§1)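 Clinical strains at ~2×10^5 CFU/mL in cation-adjusted Mueller-Hinton II broth, with relebactam at 4 μg/mL final; compounds 100 μM to 0.098 μM final. After 22 hours at 35±2° C, OD600 read; MITC95 is lowest concentration giving 95% growth inhibition.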

[2] = tested on: Klebsiella pneumoniae expressing KPC-1 (CL6569); assay: Antibiotic activity: growth inhibitory concentration (OD600), Klebsiella pneumoniae CL6569; assay type: cell-based; settings: lowest concentration inhibiting 95% of bacterial growth, in the presence of β lactamase inhibitor Relebactam 4 μg/mL, 35±2° C. for 22 hours, tested range 100 μM to 0.098 μM
In short: as §1

What does the source list for Cn1c(-c2ccc(OC[C@H](O/N=C(\C(=O)N[C@@H]3C(=O)N(OS(=O)(=O)O)C3(C)C)c3csc(N)n3)C(N)=O)cc2)cn(CCCN)c1=N [Example 114, (S)-3-((Z)-2-((((S)-1-amino-3-(4-(1-(3-aminopropyl)-2-imino-3-methyl-2,3-dihydro-1H-imidazol-4-yl)phenoxy)-1-oxopropan-2-yl)oxy)imino)-2-(2-aminothiazol-4-yl)acetamido)-2,2-dimethyl-4-oxoazetidin-1-yl sulfate]?
PA_CL5701 MITC95 [1]: 50 µM; KP_CL6569 MITC95 [2]: 1.563 µM

Which results are given for CC1(C)[C@H](NC(=O)/C(=N\O[C@@H](COc2ccc(C3CN=C(NCCN)NC3)cc2)C(=O)O)c2csc(N)n2)C(=O)N1OS(=O)(=O)O (stereo partly drawn) [Example 94, (2S)-3-(4-(2-((2-aminoethyl)amino)-1,4,5,6-tetrahydropyrimidin-5-yl)phenoxy)-2-((((Z)-1-(2-aminothiazol-4-yl)-2-(((S)-2,2-dimethyl-4-oxo-1-(sulfooxy)azetidin-3-yl)amino)-2-oxoethylidene)amino)oxy)propanoic acid]?
PA_CL5701 MITC95 [1]: 3.125 µM; KP_CL6569 MITC95 [2]: 0.1953 µM

With CC1(C)[C@H](NC(=O)/C(=N\O[C@@H](COc2ccc(-c3cnn(CCCN)c3)nc2)C(=O)O)c2csc(N)n2)C(=O)N1OS(=O)(=O)O.O=C(O)C(F)(F)F [Example 13, 3-(4-(5-((S)-2-((((Z)-1-(2-aminothiazol-4-yl)-2-(((S)-2,2-dimethyl-4-oxo-1-(sulfooxy)azetidin-3-yl)amino)-2-oxo-ethylidene)amino)oxy)-2-carboxyethoxy)pyridin-2-yl)-1H-pyrazol-1-yl)propan-1-aminium 2,2,2-trifluoroacetate] as the compound, how does the “PA_CL5701 MITC95” value [1] read?
The value was 12.5 µM.

And the “KP_CL6569 MITC95” value [2]?
Its value is 0.7813 µM.

What does the source list for CCOC(=O)[C@H](COc1ccc(-c2cn(CCCN)c(=N)n2C)cc1)O/N=C(\C(=O)N[C@@H]1C(=O)N(OS(=O)(=O)O)C1(C)C)c1csc(N)n1 [Example 116, Ethyl (S)-3-(4-(1-(3-aminopropyl)-2-imino-3-methyl-2,3-dihydro-1H-imidazol-4-yl)phenoxy)-2-((((Z)-1-(2-aminothiazol-4-yl)-2-(((S)-2,2-dimethyl-4-oxo-1-(sulfooxy)azetidin-3-yl)amino)-2-oxoethylidene)amino)oxy)propanoate]?
PA_CL5701 MITC95 [1]: 50 µM; KP_CL6569 MITC95 [2]: 6.25 µM

For CC1(C)[C@H](NC(=O)/C(=N\O[C@@H](COc2ccc(-c3cn(CCCN)[n+](CC4(F)CNC4)c3)cc2)C(=O)O)c2csc(N)n2)C(=O)N1OS(=O)(=O)[O-] [Example 119, (S)-3-((Z)-2-(((S)-2-(4-(1-(3-aminopropyl)-2-((3-fluoroazetidin-3-yl)methyl)-1H-pyrazol-2-ium-4-yl)phenoxy)-1-carboxyethoxy)imino)-2-(2-aminothiazol-4-yl)acetamido)-2,2-dimethyl-4-oxoazetidin-1-yl sulfate], which “PA_CL5701 MITC95” value [1] is on record?
The value was 6.25 µM.

And the “KP_CL6569 MITC95” value [2]?
Its value is 0.3906 µM.

What does the source list for CC1(C)[C@H](NC(=O)/C(=N\OCCOc2ccc(-c3cnn(CCCN)c3)cc2)c2csc(N)n2)C(=O)N1OS(=O)(=O)O [Example 5, (S,Z)-3-(2-((2-(4-(1-(3-aminopropyl)-1H-pyrazol-4-yl)phenoxy)ethoxy)imino)-2-(2-aminothiazol-4-yl)acetamido)-2,2-dimethyl-4-oxoazetidin-1-yl sulfate]?
PA_CL5701 MITC95 [1]: 50 µM; KP_CL6569 MITC95 [2]: 6.25 µM

For CC1(C)[C@H](NC(=O)/C(=N\O[C@@H](COc2ccc(-c3cnc(NCCN)nc3)cc2)C(=O)O)c2csc(N)n2)C(=O)N1OS(=O)(=O)O [Example 70, (S)-3-(4-(2-((2-aminoethyl)amino)pyrimidin-5-yl)phenoxy)-2-((((Z)-1-(2-aminothiazol-4-yl)-2-(((S)-2,2-dimethyl-4-oxo-1-(sulfooxy)azetidin-3-yl)amino)-2-oxoethylidene)amino)oxy)propanoic acid], which “PA_CL5701 MITC95” value [1] is on record?
Its value is 6.25 µM.

What about the “KP_CL6569 MITC95” value [2] of the same compound?
Its value is 0.7813 µM.

How did the “PA_CL5701 MITC95” value [1] turn out when C[C@H]1[C@H](NC(=O)/C(=N\O[C@@H](COc2ccc(-c3cn(CCCN)[n+](C)c3)cc2)C(=O)O)c2csc(N)n2)C(=O)N1S(=O)(=O)[O-] [Example 7, (2S,3S)-3-((Z)-2-(((S)-2-(4-(1-(3-aminopropyl)-2-methyl-1H-pyrazol-2-ium-4-yl)phenoxy)-1-carboxyethoxy)imino)-2-(2-aminothiazol-4-yl)acetamido)-2-methyl-4-oxoazetidine-1-sulfonate] was run?
Its value is 12.5 µM.

And the “KP_CL6569 MITC95” value [2]?
The value was 1.563 µM.

How did the “PA_CL5701 MITC95” value [1] turn out when C[n+]1cc(-c2ccc(OCC(C)(O/N=C(\C(=O)N[C@@H]3C(=O)N(OS(=O)(=O)O)C3(C)C)c3csc(N)n3)C(=O)O)cc2)cn1CCCN (single isomer, unassigned) [Example 23A, 2,2,2-trifluoroacetate] was run?
The value was 3.125 µM.

And the “KP_CL6569 MITC95” value ([2]; 2,2,2-trifluoroacetate)?
The value was 0.3906 µM.

What does the source list for C[n+]1cc(-c2ccc(OC[C@H](O/N=C(\C(=O)N[C@@H]3C(=O)N(OS(=O)(=O)[O-])C3(C)C)c3csc(N)n3)C(=O)O)cc2F)ccc1NCCN [Example 68, (S)-3-((Z)-2-(((S)-2-(4-(6-((2-aminoethyl)amino)-1-methylpyridin-1-ium-3-yl)-3-fluorophenoxy)-1-carboxyethoxy)imino)-2-(2-aminothiazol-4-yl)acetamido)-2,2-dimethyl-4-oxoazetidin-1-yl sulfate]?
PA_CL5701 MITC95 [1]: 3.125 µM; KP_CL6569 MITC95 [2]: 0.1953 µM

Which “PA_CL5701 MITC95” value [1] does the source give for CC1(C)[C@H](NC(=O)/C(=N\O[C@@](C)(COc2ccc(-n3cc[n+](CCCN)c3)nc2)C(=O)O)c2csc(N)n2)C(=O)N1OS(=O)(=O)[O-] [Example 113, (S)-3-((Z)-2-((((S)-1-((6-(3-(3-aminopropyl)-1H-imidazol-3-ium-1-yl)pyridin-3-yloxy)-2-carboxypropan-2-yl)oxy)imino)-2-(2-aminothiazol-4-yl)acetamido)-2,2-dimethyl-4-oxoazetidin-1-yl sulfate] here?
The value was 12.5 µM.

What about the “KP_CL6569 MITC95” value [2] of the same compound?
Its value is 0.7813 µM.

Which results are given for CC1(C)[C@H](NC(=O)/C(=N\O[C@@H](COc2ccc(-c3ccnc(NCCCN)c3)cc2)C(=O)O)c2csc(N)n2)C(=O)N1OS(=O)(=O)O [Example 64, (S)-3-((Z)-2-(((S)-2-(4-(2-((3-aminopropyl)amino)pyridin-4-yl)phenoxy)-1-carboxyethoxy)imino)-2-(2-aminothiazol-4-yl)acetamido)-2,2-dimethyl-4-oxoazetidin-1-yl sulfate]?
PA_CL5701 MITC95 [1]: 12.5 µM; KP_CL6569 MITC95 [2]: 1.563 µM

What does the source list for C[n+]1cc(-c2ccc(OC[C@](C)(O/N=C(\C(=O)N[C@@H]3C(=O)N(OS(=O)(=O)[O-])C3(C)C)c3csc(N)n3)C(=O)O)cc2F)cn1CCCN [Example 105, (S)-3-((Z)-2-((((Sn-1-(4-(1-(3-aminopropyl)-2-methyl-1H-pyrazol-2-ium-4-yl)-3-fluorophenoxy)-2-carboxypropan-2-yl)oxy)imino)-2-(2-aminothiazol-4-yl)acetamido)-2,2-dimethyl-4-oxoazetidin-1-yl sulfate]?
PA_CL5701 MITC95 [1]: 3.125 µM; KP_CL6569 MITC95 [2]: 0.3906 µM

With CC1(C)[C@H](NC(=O)/C(=N\O[C@@H](COc2ccc(Nc3nccn3CCCN)nc2)C(=O)O)c2csc(N)n2)C(=O)N1OS(=O)(=O)O [Example 37A, 3-(2-((5-((S)-2-((((Z)-1-(2-aminothiazol-4-yl)-2-(((S)-2,2-dimethyl-4-oxo-1-(sulfooxy)azetidin-3-yl)amino)-2-oxoethylidene)amino)oxy)-2-carboxyethoxy)pyridin-2-yl)amino)-1H-imidazol-1-yl)propan-1-aminium 2,2,2-trifluoroacetate] as the compound, how does the “PA_CL5701 MITC95” value [1] read?
Its value is 3.13 µM.

And the “KP_CL6569 MITC95” value [2]?
Its value is 0.78 µM.

With C[n+]1cc(-c2ccc(OC[C@H](O/N=C(\C(=O)N[C@@H]3C(=O)N(OS(=O)(=O)[O-])C3(C)C)c3csc(N)n3)C(=O)O)cc2)ccc1NC(CN)CN [Example 82, (S)-3-((Z)-2-(2-aminothiazol-4-yl)-2-(((S)-1-carboxy-2-(4-(6-((1,3-diaminopropan-2-yl)amino)-1-methylpyridin-1-ium-3-yl)phenoxy)ethoxy)imino)acetamido)-2,2-dimethyl-4-oxoazetidin-1-yl sulfate] as the compound, how does the “PA_CL5701 MITC95” value [1] read?
The value was 3.125 µM.

What about the “KP_CL6569 MITC95” value [2] of the same compound?
Its value is 0.1953 µM.

With C[n+]1cc(-c2ccc(OC[C@H](O/N=C(\C(=O)N[C@@H]3C(=O)N(OS(=O)(=O)[O-])C3(C)C)c3csc(N)n3)C(=O)O)cc2)ccc1NCC1(O)CNC1 [Example 73, (S)-3-((Z)-2-(2-aminothiazol-4-yl)-2-(((S)-1-carboxy-2-(4-(6-(((3-hydroxyazetidin-3-yl)methyl)amino)-1-methylpyridin-1-ium-3-yl)phenoxy)ethoxy)imino)acetamido)-2,2-dimethyl-4-oxoazetidin-1-yl sulfate] as the compound, how does the “PA_CL5701 MITC95” value [1] read?
Its value is 3.125 µM.

And the “KP_CL6569 MITC95” value [2]?
The value was 0.1953 µM.

Which results are given for C[n+]1cc(-c2ccc(OC[C@H](O/N=C(\C(=O)N[C@@H]3C(=O)N(OS(=O)(=O)[O-])C3(C)C)c3csc(N)n3)C(=O)O)cc2)cnc1N(CCN)CC1CNC1 [Example 83, (S)-3-((Z)-2-(((S)-2-(4-(2-((2-aminoethyl)(azetidin-3-ylmethyl)amino)-1-methylpyrimidin-1-ium-5-yl)phenoxy)-1-carboxyethoxy)imino)-2-(2-aminothiazol-4-yl)acetamido)-2,2-dimethyl-4-oxoazetidin-1-yl sulfate]?
PA_CL5701 MITC95 [1]: 1.563 µM; KP_CL6569 MITC95 [2]: 0.1953 µM
